According to US20160157479A1, “ANTIFUNGAL COMPOSITION AND METHOD” (OMEX INTERNATIONAL LIMITED, priority 2013, published 2016):

Assays:
[1] = Light-fastness study, ratio of Oxynex ST:ascorbic acid; assay type: physicochemical; details: 0.1% vanillin, 1500 Lux 5 hours per day
Experimental: The formulations used for these experiments are described in TABLE 12. Various ratios of Oxynex ST and ascorbic acid were used in the composition to determine the effect on photostability.
(§1) Method: Formulations were diluted with water to 0.1% vanillin and 5 mL transferred by pipette to a 100 mL crystallising dish. All dishes were placed in a light box containing two 60 cm high efficiency 24 W fluorescent bulbs housed in a canopy to provide bright, full spectrum lighting closely resembling daylight (6400 Kelvin). The dishes were covered with muslin sheets to reduce the intensity of the light to 1500 Lux on a programme of 5 hours per day. At specific time intervals the dishes were extracted and made up to volume with methanol. Samples were analysed by HPLC.

[2] = Light-fastness study (Oxynex ST photostabiliser); assay type: physicochemical; details: 0.1% vanillin, light box 5000 lux
Experimental: A composition without any photostabiliser was used as a base composition (no photostabiliser).
Method: Each formulation was diluted with water to 0.1% vanillin (as pure) and 5 mL was applied by pipette to a glass petri dish. The dishes were left to stand in a light box fitted with 2×40 W fluorescent daylight bulbs with an illumination intensity of 5000 lux. The dishes were extracted with methanol and made up to 25 mL in a volumetric flask after 3 and 5 days. Samples were then analysed by HPLC.

[3] = Light-fastness study, addition of ascorbic acid; assay type: physicochemical; details: 0.1% vanillin, 1500 Lux 5 hours per day
Experimental: The formulations used for these experiments are described in TABLE 10. Oxynex ST (5%) and Oxynex ST (5%) with ascorbic acid (1%) were added to the composition to determine the effect on photostability.
as §1

Photodecomposition study = assay type: physicochemical; details: 0.1% vanillin
Experimental: The following samples were prepared by diluting down the specified composition with water: • VS, vanillin solution in water @ 0.1% vanillin; • 0.4% dilution of RBEF-024 (0.1% vanillin); and • 0.4% dilution of RBEF-030 (0.1% vanillin). • 5 ml of the diluted material was pipetted into 3 pyrex crystallisation dishes; the surface was covered with muslin and the samples placed in a light box for 1, 3 and 5 days respectively with high intensity white light applied for 5 hours out of every 24 hours.
As a control, three equivalent samples were placed in crystallisation dishes which were placed in the dark (inside a cupboard).
At the end of each time period the contents of the crystallisation dishes were washed out with 4×5 mL methanol (magnetic stirrer used at each addition to dissolve any solid vanillin) and the washings transferred to a 25 mL volumetric flask and made up to volume with methanol.
As an initial control (t=0 days), 5 mL of each dilution was pipetted into a 25 mL volumetric flask and made up to volume with methanol.

cabbage leaf discs = assay: Effect of composition on leaf-penetration; details: 0.1% vanillin
Experimental: 14.5 cm cabbage leaf discs were cut and placed in a petri dish and treated with a diluted composition. At the same time a second petri dish (control) was treated with the same diluted composition with no leaf present and stored in the dark for the duration of the test.
Test time periods were 1, 2, 4, 6 & 24 hours after application. The application was performed using an artist's air brush at low pressure to give a deposit of circa 2 g of spray diluted composition.
At the appropriate time period, the leaf disc was washed with methanol and the washings collected and made up to 25 mL with methanol. The appropriate control petri dish was also washed with methanol and the volume made up to 25 mL.
For each treatment a spray control was prepared by diluting 5 mL of spray liquid to 50 mL in a volumetric flask with methanol. The spray control is applied to the leaf and is used to determine the amount of vanillin applied to the leaf surface for each test.
The amount of vanillin washed from the leaf surface was subtracted from the amount washed from the petri dish control to determine how much of the vanillin has moved into the leaf sub-surface layer as a function of the formulation.

Vanillin (mg/L) 2 ([1]; 0 days): 200.48 mg/L
Vanillin mg/dish ([1]; 0 days): 5.02 mg/dish
Loss (%) ([1]; 1 day): −1.19%
Vanillin mg/dish ([1]; 1 day): 4.96 mg/dish
Loss (%) ([1]; 2 days): −0.11%
Vanillin mg/dish ([1]; 2 days): 4.96 mg/dish
Loss (%) ([1]; 3 days): −1.17%
Vanillin mg/dish ([1]; 3 days): 4.90 mg/dish
Loss (%) ([2]; 3 days): 6.18%
Vanillin ([2]; 3 days): 177.65 mg/L
Loss (%) ([2]; 5 days): 8.49%
Concentration (mg/dish) ([3]; 0 days): 5.87 mg/dish
Loss (%) ([3]; 0 days): 0.00%
Concentration (mg/dish) ([3]; 1 day): 5.85 mg/dish
Loss (%) ([3]; 1 day): 0.34%
Loss (%) ([3]; 3 days): 3.92%
Concentration (mg/dish) ([3]; 7 days): 5.53 mg/dish
Loss (%) ([3]; 7 days): 5.79%
Concentration (mg/dish) ([3]; 14 days): 5.22 mg/dish
% Vanillin lost by photo-decomposition (Photodecomposition study; 0 days): 0.0%
% Vanillin lost by photo-decomposition (Photodecomposition study; light box 5 of 24 hours, 1 day): +0.08%
% Vanillin lost by photo-decomposition (Photodecomposition study; light box 5 of 24 hours, 3 day): +1.50%
% Vanillin lost by photo-decomposition (Photodecomposition study; light box 5 of 24 hours, 5 day): +2.08%
% Vanillin penetrating through leaf cuticle surface (cabbage leaf discs; 1 hour after application): 0.4%
% Vanillin penetrating through leaf cuticle surface (cabbage leaf discs; 2 hour after application): 2.5%
% Vanillin penetrating through leaf cuticle surface (cabbage leaf discs; 4 hour after application): 1.7%
% Vanillin penetrating through leaf cuticle surface (cabbage leaf discs; 6 hour after application): 5.0%
% Vanillin penetrating through leaf cuticle surface (cabbage leaf discs; 24 hour after application): 8.5%
Structure (SMILES): COc1cc(C=O)ccc1O [0.1% Vanillin Technical in water, 4-Hydroxy-3-methoxybenzaldehyde]
